One assay concerns the target T1, BRSK2 (Homo sapiens, UniProt Q8IWQ3).
T1 sequence (Q8IWQ3 1-736): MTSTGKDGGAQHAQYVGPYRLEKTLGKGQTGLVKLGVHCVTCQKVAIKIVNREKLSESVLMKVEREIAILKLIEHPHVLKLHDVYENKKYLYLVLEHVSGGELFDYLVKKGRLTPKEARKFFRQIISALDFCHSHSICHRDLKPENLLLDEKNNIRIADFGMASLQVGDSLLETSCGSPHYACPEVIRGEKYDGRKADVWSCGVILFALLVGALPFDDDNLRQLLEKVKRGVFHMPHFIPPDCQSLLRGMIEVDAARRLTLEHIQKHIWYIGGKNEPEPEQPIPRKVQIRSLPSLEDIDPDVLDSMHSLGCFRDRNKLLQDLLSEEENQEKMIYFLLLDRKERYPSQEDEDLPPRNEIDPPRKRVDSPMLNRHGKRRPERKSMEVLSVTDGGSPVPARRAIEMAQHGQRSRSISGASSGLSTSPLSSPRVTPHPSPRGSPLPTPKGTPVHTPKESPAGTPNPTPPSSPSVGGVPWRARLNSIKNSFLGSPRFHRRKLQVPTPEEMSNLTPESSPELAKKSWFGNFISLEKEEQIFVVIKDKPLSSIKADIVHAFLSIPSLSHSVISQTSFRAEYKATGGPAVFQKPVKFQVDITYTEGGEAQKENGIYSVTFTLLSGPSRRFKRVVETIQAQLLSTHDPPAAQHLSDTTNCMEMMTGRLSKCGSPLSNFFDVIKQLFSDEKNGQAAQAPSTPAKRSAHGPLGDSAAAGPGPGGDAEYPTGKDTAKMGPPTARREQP
Briefly: Kinase profiling panel. The class given is biochemical. Particulars: read-out: percentage of kinase activity compared with control.

The target of another assay is IRR (Homo sapiens, UniProt P14616). Briefly: Kinase profiling panel. The class given is biochemical. Particulars: read-out: percentage of kinase activity compared with control.

Structures are written as SMILES.

IRR, sequence (P14616 27-1297): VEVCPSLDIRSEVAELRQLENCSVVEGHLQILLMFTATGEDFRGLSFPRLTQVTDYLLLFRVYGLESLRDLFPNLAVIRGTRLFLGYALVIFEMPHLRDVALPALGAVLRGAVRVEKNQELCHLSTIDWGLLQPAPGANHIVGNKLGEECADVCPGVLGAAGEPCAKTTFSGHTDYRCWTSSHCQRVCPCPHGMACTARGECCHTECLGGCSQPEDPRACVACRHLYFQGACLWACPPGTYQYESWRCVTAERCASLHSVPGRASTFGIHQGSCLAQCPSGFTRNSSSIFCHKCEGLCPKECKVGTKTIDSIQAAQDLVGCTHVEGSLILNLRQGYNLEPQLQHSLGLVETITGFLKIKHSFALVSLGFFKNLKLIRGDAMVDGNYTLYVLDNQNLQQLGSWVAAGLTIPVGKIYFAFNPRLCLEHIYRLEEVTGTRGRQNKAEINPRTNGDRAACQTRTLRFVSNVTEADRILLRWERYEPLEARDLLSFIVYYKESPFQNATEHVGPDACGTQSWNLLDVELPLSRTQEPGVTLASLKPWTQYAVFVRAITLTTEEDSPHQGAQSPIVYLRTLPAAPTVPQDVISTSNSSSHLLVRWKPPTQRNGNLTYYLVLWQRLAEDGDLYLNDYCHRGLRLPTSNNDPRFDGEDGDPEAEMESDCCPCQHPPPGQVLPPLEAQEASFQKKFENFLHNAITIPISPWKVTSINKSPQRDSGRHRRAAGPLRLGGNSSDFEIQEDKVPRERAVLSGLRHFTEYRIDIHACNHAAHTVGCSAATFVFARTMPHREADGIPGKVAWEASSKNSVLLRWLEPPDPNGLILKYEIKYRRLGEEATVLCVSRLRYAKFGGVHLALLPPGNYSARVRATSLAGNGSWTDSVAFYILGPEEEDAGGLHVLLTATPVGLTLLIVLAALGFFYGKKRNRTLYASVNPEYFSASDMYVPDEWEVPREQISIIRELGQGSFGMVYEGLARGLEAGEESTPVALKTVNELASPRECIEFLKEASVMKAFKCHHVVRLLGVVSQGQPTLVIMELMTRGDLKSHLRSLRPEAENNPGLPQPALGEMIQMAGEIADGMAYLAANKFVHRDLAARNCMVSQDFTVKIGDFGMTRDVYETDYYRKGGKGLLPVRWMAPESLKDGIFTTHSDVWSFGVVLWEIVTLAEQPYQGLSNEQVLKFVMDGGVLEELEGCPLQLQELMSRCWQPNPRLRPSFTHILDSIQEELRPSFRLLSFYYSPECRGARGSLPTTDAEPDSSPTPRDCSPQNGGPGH

With `CCN(CC)CCNC(=O)c1c(C)[nH]c(/C=C2\C(=O)Nc3ccc(F)cc32)c1C` [Sunitinib, sunitinib], the remaining activity at 1 µM at BRSK2 came out at 40 ± 6%; at IRR, 77 ± 24%.

The values above are taken from publication PMC3759966 (The Biochemical journal, 2009).
